What was measured:
Assay in all cases: viability relative to DMSO control (fraction); higher = less drug effect (more viable cells)
[1] = system: primary AML patient cells (S025); details: 48 h
Method in brief: (§1)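 Viability was measured as CellTiter-Glo luminescence relative to the median of 16 inner DMSO wells. Primary mononuclear tumour cells, fresh or cryopreserved, were Ficoll-isolated from blood or bone marrow or taken from processed lymph node. They were seeded at 4 × 10^4 cells per well into 384-well plates holding pre-plated compounds at five concentrations, one well each, and kept in RPMI-1640 with penicillin/streptomycin, L-glutamine and human serum at 37 °C and 5% CO2 for 48 h.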

[2] = system: primary DLBCL patient cells (S049); details: 48 h
Method in brief: as §1

[3] = system: primary AML patient cells (S071); details: 48 h
Method in brief: as §1

[4] = system: primary T-NHL patient cells (S058); details: 48 h
Method in brief: as §1

[5] = system: primary B-PLL patient cells (S016); details: 48 h
Method in brief: as §1

[6] = system: primary CLL patient cells (S043); details: 48 h
Method in brief: as §1

[7] = system: primary AML patient cells (S002); details: 48 h
Method in brief: as §1

[8] = system: primary AML patient cells (S081); details: 48 h
Method in brief: as §1

[9] = system: primary AML patient cells (S085); details: 48 h
Method in brief: as §1

[10] = system: primary AML patient cells (S007); details: 2 µM; 48 h
Method in brief: as §1

[11] = system: primary AML patient cells (S060); details: 48 h
Method in brief: as §1

[12] = system: primary AML patient cells (S017); details: 48 h
Method in brief: as §1

[13] = system: primary AML patient cells (S019); details: 48 h
Method in brief: as §1

[14] = system: primary AML patient cells (S021); details: 48 h
Method in brief: as §1

[15] = system: primary ALL patient cells (S088); details: 48 h
Method in brief: as §1

[16] = system: primary AML patient cells (S011); details: 48 h
Method in brief: as §1

[17] = system: primary BL patient cells (S005); details: 48 h
Method in brief: as §1

[18] = system: primary DLBCL patient cells (S076); details: 48 h
Method in brief: as §1

In the case of `CC(C)c1cc(-c2n[nH]c(=O)n2-c2ccc3c(ccn3C)c2)c(O)cc1O` [Ganetespib], the viability ([1]; 0.0032 µM) is reported as 0.936, the viability ([1]; 0.016 µM) is reported as 0.579 and the viability ([1]; 0.08 µM) is reported as 0.343. The viability ([1]; 0.4 µM) was 0.334, the viability ([2]; 0.0032 µM) was 0.955 and the viability ([2]; 0.016 µM) was 0.989. It also gave a viability ([2]; 0.08 µM) of 0.888, a viability ([2]; 0.4 µM) of 0.54 and a viability ([2]; 2 µM) of 0.537. It also gave a viability ([3]; 0.0032 µM) of 0.892, a viability ([3]; 0.016 µM) of 0.357 and a viability ([3]; 0.08 µM) of 0.142. The viability ([3]; 0.4 µM) was 0.167, the viability ([3]; 2 µM) was 0.164 and the viability ([4]; 0.0032 µM) was 1.01. For the same molecule, the viability ([4]; 0.016 µM) was 0.978, the viability ([4]; 0.08 µM) was 0.943 and the viability ([4]; 0.4 µM) was 1.14. For the same molecule, the viability ([4]; 2 µM) was 1.12, the viability ([5]; 0.0032 µM) was 1.03 and the viability ([5]; 0.016 µM) was 0.967. It also gave a viability ([5]; 0.08 µM) of 0.569, a viability ([5]; 0.4 µM) of 0.552 and a viability ([5]; 2 µM) of 0.514. It also gave a viability ([6]; 0.0032 µM) of 0.928, a viability ([6]; 0.016 µM) of 0.917 and a viability ([6]; 0.08 µM) of 0.637. It also gave a viability ([6]; 0.4 µM) of 0.535, a viability ([6]; 2 µM) of 0.521 and a viability ([7]; 0.0032 µM) of 0.957. It also gave a viability ([7]; 0.016 µM) of 0.414, a viability ([7]; 0.08 µM) of 0.328 and a viability ([7]; 0.4 µM) of 0.326. The viability ([7]; 2 µM) was 0.323, the viability ([8]; 0.0032 µM) was 0.981 and the viability ([8]; 0.016 µM) was 0.674. It also gave a viability ([8]; 0.08 µM) of 0.0862, a viability ([8]; 0.4 µM) of 0.0773 and a viability ([8]; 2 µM) of 0.0742. The viability ([9]; 0.0032 µM) was 0.973, the viability ([9]; 0.016 µM) was 0.648 and the viability ([9]; 0.08 µM) was 0.195. The viability ([9]; 0.4 µM) was 0.251, the viability ([9]; 2 µM) was 0.264 and the viability [10] was 0.0928. The viability ([11]; 0.0032 µM) was 0.97, the viability ([11]; 0.016 µM) was 1.05 and the viability ([11]; 0.08 µM) was 0.154. The viability ([11]; 0.4 µM) was 0.118, the viability ([11]; 2 µM) was 0.107 and the viability ([12]; 0.0032 µM) was 1.07. For the same molecule, the viability ([12]; 0.016 µM) was 0.996, the viability ([12]; 0.08 µM) was 0.371 and the viability ([12]; 0.4 µM) was 0.326. For the same molecule, the viability ([12]; 2 µM) was 0.31, the viability ([13]; 0.0032 µM) was 0.923 and the viability ([13]; 0.016 µM) was 0.682. For the same molecule, the viability ([13]; 0.08 µM) was 0.411, the viability ([13]; 0.4 µM) was 0.465 and the viability ([13]; 2 µM) was 0.444. It also gave a viability ([14]; 0.0032 µM) of 0.917, a viability ([14]; 0.016 µM) of 0.742 and a viability ([14]; 0.08 µM) of 0.53. It also gave a viability ([14]; 0.4 µM) of 0.637, a viability ([14]; 2 µM) of 0.617 and a viability ([15]; 0.0032 µM) of 0.823. It also gave a viability ([15]; 0.016 µM) of 0.425, a viability ([15]; 0.08 µM) of 0.274 and a viability ([15]; 0.4 µM) of 0.259. The viability ([15]; 2 µM) was 0.267, the viability ([16]; 0.0032 µM) was 1.13 and the viability ([16]; 0.016 µM) was 0.778. The viability ([16]; 0.08 µM) was 0.624, the viability ([16]; 0.4 µM) was 0.684 and the viability ([16]; 2 µM) was 0.644. The viability ([17]; 0.0032 µM) was 0.871, the viability ([17]; 0.016 µM) was 0.871 and the viability ([17]; 0.08 µM) was 0.637. It also gave a viability ([17]; 0.4 µM) of 0.725, a viability ([17]; 2 µM) of 0.716 and a viability ([18]; 0.0032 µM) of 1.12. The viability ([18]; 0.016 µM) was 0.904, the viability ([18]; 0.08 µM) was 0.467 and the viability ([18]; 0.4 µM) was 0.407. For the same molecule, the viability ([18]; 2 µM) was 0.396.

Reference: the supplement of paper PMC10733146
